Source: patent EP4790066A1, “GLP-1R/GIPR/GCGR TRIPLE AGONIST ANALOGUE AND USE THEREOF” (Shenzhen Bay Laboratory, priority 2023, dated 2025)
*1 amine or outer side, *2 acyl side, *3 side chain or, on linkers, in order; H or OH if unused. Where a SMILES comes first, the peptide text is derived from it. Bridges are numbered along the chain shown (N, C = ends). [ ]: non-standard residue; d: D form. X1 = O=C(O)CCCCCCCCCCCCCCCCCCC(=O)N[C@@H](CCCCNC(=O)COCCOCCNC(=O)COCCOCCNC(=O)CCC(=O)N(CCNC(=O)C[*:1])CCNC(=O)C[*:2])C(=O)O; tBuAla = CC(C)(C)C[C@H](N)C(=O)O; αMeL = CC(C)C[C@](C)(N)C(=O)O; Aib = CC(C)(N)C(=O)O

Columns and labels:
Assay type in all cases: cell-based
GCGR = molecular target: T1, GCGR (Homo sapiens, UniProt P47871); assay: CreLuc method (CRE-luciferase reporter), 293HEK/pGM-CREB-L-Luc/GCGR pool; details: 6 h incubation, read-out: EC50 (pM) for each receptor GCGR
T1 construct: expressed in transfected cells
Protocol: (§1) 1. Insulinotropic analogues can bind to the target receptor on the cell membrane, activate the cAMP response element (CRE), and initiate the expression of downstream luciferase. The expression level is positively correlated with the biological activity of the analogue being tested. After activation, luciferase substrate is added for chemiluminescence detection, and the luminescence intensity is determined to characterize the biological activity of the test compounds. Therefore, the target peptide derivatives (or polypeptide derivatives, i.e., TG1-TG94) prepared in Example 1 and Example 2 can be tested by the CreLuc method. The specific steps are as follows: The stably transfected cell lines HEK293/pGM-CREB-L-Luc/GLP-1R pool, HEK293/pGM-CREB-L-Luc/GIPR pool, and 293HEK/pGM-CREB-L-Luc/GCGR pool were constructed. […] The corresponding test cells were digested (1 min), dispersed by pipetting, and centrifuged (1000 rpm, 5 min). The culture medium was discarded, and the cells were resuspended in freestyle medium, centrifuged again, collected, and counted. The cells were then diluted to a cell density of 5 x 10^5 cells/mL and then added to the detection wells of a 384-well plate (40 µL/20,000 cells/well). Echo was used to add the corresponding analyte dilution series. The cell plate was incubated at 37°C and 5% CO2 for 6 h, then ONE-GLO (20 µL/well) was added for detection. It was kept in the dark for 3 min, then a chemiluminescent microplate reader was used for determination. The plate was read within 30 min, and the determination results were recorded. […] Table 3: EC50 values for target peptide derivatives

GIPR = molecular target: T2, GIPR (Homo sapiens, UniProt P48546); assay: CreLuc method (CRE-luciferase reporter), HEK293/pGM-CREB-L-Luc/GIPR pool; details: 6 h incubation, read-out: EC50 (pM) for each receptor GIPR
T2 construct: expressed in transfected cells
T2 sequence (P48546 22-466): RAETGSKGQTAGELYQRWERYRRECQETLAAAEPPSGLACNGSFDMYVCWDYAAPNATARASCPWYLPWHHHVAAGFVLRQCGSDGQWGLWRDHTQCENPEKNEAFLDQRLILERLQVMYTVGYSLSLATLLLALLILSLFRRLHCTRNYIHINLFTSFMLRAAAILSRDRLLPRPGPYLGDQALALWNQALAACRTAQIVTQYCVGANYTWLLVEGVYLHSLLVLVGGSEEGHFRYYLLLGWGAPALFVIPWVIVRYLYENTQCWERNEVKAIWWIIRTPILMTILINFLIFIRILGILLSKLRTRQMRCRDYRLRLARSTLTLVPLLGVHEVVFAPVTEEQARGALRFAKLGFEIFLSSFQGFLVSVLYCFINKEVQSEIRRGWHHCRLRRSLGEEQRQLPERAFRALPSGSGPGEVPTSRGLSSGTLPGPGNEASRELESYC
Protocol: as §1

GLP-1R = molecular target: T3, GLP-1R (Homo sapiens, UniProt P43220); assay: CreLuc method (CRE-luciferase reporter), HEK293/pGM-CREB-L-Luc/GLP-1R pool; details: 6 h incubation, read-out: EC50 (pM) for each receptor GLP-1R
T3 construct: expressed in transfected cells
Protocol: as §1

T1 sequence (P47871 26-477, species assumed): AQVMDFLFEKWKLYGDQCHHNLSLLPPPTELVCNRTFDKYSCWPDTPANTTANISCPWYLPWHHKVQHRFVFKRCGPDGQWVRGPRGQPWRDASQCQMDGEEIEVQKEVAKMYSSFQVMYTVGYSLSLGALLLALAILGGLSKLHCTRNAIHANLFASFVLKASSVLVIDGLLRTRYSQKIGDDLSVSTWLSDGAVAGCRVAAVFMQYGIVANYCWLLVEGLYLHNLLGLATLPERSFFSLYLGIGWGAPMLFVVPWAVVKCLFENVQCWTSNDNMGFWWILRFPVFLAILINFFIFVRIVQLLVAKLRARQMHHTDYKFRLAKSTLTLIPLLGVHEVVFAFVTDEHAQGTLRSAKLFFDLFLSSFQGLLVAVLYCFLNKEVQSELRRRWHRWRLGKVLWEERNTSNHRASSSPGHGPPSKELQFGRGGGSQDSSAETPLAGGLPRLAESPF
T3 sequence (P43220 24-463, species assumed): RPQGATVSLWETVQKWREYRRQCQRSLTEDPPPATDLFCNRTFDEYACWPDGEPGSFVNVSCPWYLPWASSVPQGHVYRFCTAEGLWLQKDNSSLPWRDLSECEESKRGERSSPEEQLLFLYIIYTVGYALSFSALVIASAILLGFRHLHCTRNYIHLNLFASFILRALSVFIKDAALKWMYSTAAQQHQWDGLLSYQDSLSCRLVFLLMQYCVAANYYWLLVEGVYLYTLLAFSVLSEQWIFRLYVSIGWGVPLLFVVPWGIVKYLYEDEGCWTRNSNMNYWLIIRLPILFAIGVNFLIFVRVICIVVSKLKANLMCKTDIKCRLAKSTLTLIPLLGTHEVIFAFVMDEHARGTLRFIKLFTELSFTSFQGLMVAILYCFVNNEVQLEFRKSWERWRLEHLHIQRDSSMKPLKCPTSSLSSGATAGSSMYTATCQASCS

| SMILES | EC50 (GCGR) | EC50 (GIPR) | EC50 (GLP-1R) |
| --- | --- | --- | --- |
| CC[C@H](C)[C@@H]1NC(=O)[C@H](Cc2ccccc2)NC(=O)[C@@H](NC(=O)[C@H](CCC(N)=O)NC(=O)[C@H](CCC(N)=O)NC(=O)[C@H](C)NC(=O)[C@H](CCCCNC(C)=O)NC(=O)[C@H](CCCCN)NC(=O)[C@H](CC(=O)O)NC(=O)[C@H](CC(C)C)NC(=O)[C@](C)(CC(C)C)NC(=O)[C@@H](NC(=O)[C@H](CO)NC(=O)[C@H](Cc2ccc(O)cc2)NC(=O)[C@H](CC(=O)O)NC(=O)[C@H](CO)NC(=O)[C@@H](NC(=O)[C@H](Cc2ccccc2)NC(=O)[C@@H](NC(=O)CNC(=O)[C@H](CCC(N)=O)NC(=O)C(C)(C)NC(=O)[C@@H](N)Cc2ccc(O)cc2)[C@@H](C)O)[C@@H](C)O)[C@@H](C)CC)CSCC(=O)NCCN(C(=O)CCC(=O)NCCOCCOCC(=O)NCCOCCOCC(=O)NCCCC[C@H](NC(=O)CCCCCCCCCCCCCCCCCCC(=O)O)C(=O)O)CCNC(=O)CSC[C@@H](C(=O)NCC(=O)NCC(=O)N2CCC[C@H]2C(=O)N[C@@H](CO)C(=O)N[C@@H](CO)C(=O)NCC(=O)N[C@@H](C)C(=O)N2CCC[C@H]2C(=O)N2CCC[C@H]2C(=O)N2CCC[C@H]2C(=O)N[C@@H](CO)C(N)=O)NC(=O)[C@H](CC(C)C)NC(=O)[C@H](CC(C)C)NC(=O)[C@H](Cc2ccc(O)cc2)NC(=O)[C@H](CCC(=O)O)NC1=O [TG33] (H-Y[Aib]QGTFTSDYSI[αMeL]LDKK(Ac)AQQCFIEYLLCGGPSSGAPPPS-NH2; linker 21-28 via X1) | 96.8 pM | 7.6 pM | 23.7 pM |
| CC[C@H](C)[C@H](NC(=O)[C@H](CO)NC(=O)[C@H](Cc1ccc(O)cc1)NC(=O)[C@H](CC(=O)O)NC(=O)[C@H](CO)NC(=O)[C@@H](NC(=O)[C@H](Cc1ccccc1)NC(=O)[C@@H](NC(=O)CNC(=O)[C@H](Cc1c[nH]cn1)NC(=O)C(C)(C)NC(=O)[C@@H](N)Cc1c[nH]cn1)[C@@H](C)O)[C@@H](C)O)C(=O)N[C@@H](Cc1ccc(O)cc1)C(=O)N[C@H]1CSCC(=O)NCCN(C(=O)CCC(=O)NCCOCCOCC(=O)NCCOCCOCC(=O)NCCCC[C@H](NC(=O)CCCCCCCCCCCCCCCCCCC(=O)O)C(=O)O)CCNC(=O)CSC[C@@H](C(=O)N[C@@H](Cc2ccccc2)C(=O)N[C@H](C(=O)N[C@@H](CCC(N)=O)C(=O)N[C@@H](Cc2c[nH]c3ccccc23)C(=O)N[C@@H](CC(C)C)C(=O)N[C@@H](CC(C)C)C(=O)N[C@@H](CCC(=O)O)C(=O)NCC(=O)NCC(=O)N2CCC[C@H]2C(=O)N[C@@H](CO)C(=O)N[C@@H](CO)C(=O)NCC(=O)N[C@@H](C)C(=O)N2CCC[C@H]2C(=O)N2CCC[C@H]2C(=O)N2CCC[C@H]2C(=O)N[C@@H](CO)C(N)=O)C(C)C)NC(=O)C(C)(C)NC(=O)[C@H](C)NC(=O)[C@H](Cc2ccc(O)cc2)NC(=O)[C@H](CCCNC(=N)N)NC(=O)[C@H](CCCCN)NC(=O)[C@H](CCC(=O)O)NC1=O [TG8] | 836 pM | 426 pM | 243 pM |
| CC[C@H](C)[C@@H]1NC(=O)[C@H](Cc2ccccc2)NC(=O)[C@@H](NC(=O)C(C)(C)NC(=O)[C@H](CCC(N)=O)NC(=O)[C@H](C)NC(=O)[C@H](CCCCNC(C)=O)NC(=O)[C@H](CCCCN)NC(=O)[C@H](CC(=O)O)NC(=O)[C@H](CC(C)C)NC(=O)[C@](C)(CC(C)C)NC(=O)[C@@H](NC(=O)[C@H](CO)NC(=O)[C@H](Cc2ccc(O)cc2)NC(=O)[C@H](CC(=O)O)NC(=O)[C@H](CO)NC(=O)[C@@H](NC(=O)[C@H](Cc2ccccc2)NC(=O)[C@@H](NC(=O)CNC(=O)[C@H](CCC(N)=O)NC(=O)[C@@H](CO)NC(=O)[C@@H](N)Cc2ccc(O)cc2)[C@@H](C)O)[C@@H](C)O)[C@@H](C)CC)CSCC(=O)NCCN(C(=O)CCC(=O)NCCOCCOCC(=O)NCCOCCOCC(=O)NCCCC[C@H](NC(=O)CCCCCCCCCCCCCCCCCCC(=O)O)C(=O)O)CCNC(=O)CSC[C@@H](C(=O)NCC(=O)NCC(=O)N2CCC[C@H]2C(=O)N[C@@H](CO)C(=O)N[C@@H](CO)C(=O)NCC(=O)N[C@@H](C)C(=O)N2CCC[C@H]2C(=O)N2CCC[C@H]2C(=O)N2CCC[C@H]2C(=O)N[C@@H](CO)C(N)=O)NC(=O)[C@H](CC(C)C)NC(=O)[C@H](CC(C)C)NC(=O)[C@H](Cc2ccc(O)cc2)NC(=O)[C@H](CCC(=O)O)NC1=O [TG22] (H-Y[dS]QGTFTSDYSI[αMeL]LDKK(Ac)AQ[Aib]CFIEYLLCGGPSSGAPPPS-NH2; linker 21-28 via X1) | 205 pM | 18.3 pM | 665 pM |
| CC[C@H](C)[C@@H]1NC(=O)[C@H](Cc2ccccc2)NC(=O)[C@@H](NC(=O)C(C)(C)NC(=O)[C@H](CCC(N)=O)NC(=O)[C@H](C)NC(=O)[C@H](CCCCNC(C)=O)NC(=O)[C@H](CCCCN)NC(=O)[C@H](CCC(=O)O)NC(=O)[C@H](CC(C)C)NC(=O)[C@](C)(CC(C)C)NC(=O)[C@@H](NC(=O)[C@H](CO)NC(=O)[C@H](Cc2ccc(O)cc2)NC(=O)[C@H](CC(=O)O)NC(=O)[C@H](CO)NC(=O)[C@@H](NC(=O)[C@H](Cc2ccccc2)NC(=O)[C@@H](NC(=O)CNC(=O)[C@H](CCC(N)=O)NC(=O)C(C)(C)NC(=O)[C@@H](N)Cc2ccc(O)cc2)[C@@H](C)O)[C@@H](C)O)[C@@H](C)CC)CSCC(=O)NCCN(C(=O)CCC(=O)NCCOCCOCC(=O)NCCOCCOCC(=O)NCCCC[C@H](NC(=O)CCCCCCCCCCCCCCCCCCC(=O)O)C(=O)O)CCNC(=O)CSC[C@@H](C(=O)NCC(=O)NCC(=O)N2CCC[C@H]2C(=O)N[C@@H](CO)C(=O)N[C@@H](CO)C(=O)NCC(=O)N[C@@H](C)C(=O)N2CCC[C@H]2C(=O)N2CCC[C@H]2C(=O)N2CCC[C@H]2C(=O)N[C@@H](CO)C(N)=O)NC(=O)[C@H](CC(C)C)NC(=O)[C@H](CC(C)C)NC(=O)[C@H](Cc2ccc(O)cc2)NC(=O)[C@H](CCC(=O)O)NC1=O [TG36] | 813 pM | 10.8 pM | 34.1 pM |
| CC[C@H](C)[C@@H]1NC(=O)[C@H](Cc2ccccc2)NC(=O)[C@@H](NC(=O)C(C)(C)NC(=O)[C@H](CCC(N)=O)NC(=O)[C@H](C)NC(=O)[C@H](CCCCNC(C)=O)NC(=O)[C@H](CCCCN)NC(=O)[C@H](CC(=O)O)NC(=O)[C@H](CC(C)(C)C)NC(=O)[C@](C)(CC(C)C)NC(=O)[C@@H](NC(=O)[C@H](CO)NC(=O)[C@H](Cc2ccc(O)cc2)NC(=O)[C@H](CC(=O)O)NC(=O)[C@H](CO)NC(=O)[C@@H](NC(=O)[C@H](Cc2ccccc2)NC(=O)[C@@H](NC(=O)CNC(=O)[C@H](CCC(N)=O)NC(=O)C(C)(C)NC(=O)[C@@H](N)Cc2ccc(O)cc2)[C@@H](C)O)[C@@H](C)O)[C@@H](C)CC)CSCC(=O)NCCN(C(=O)CCC(=O)NCCOCCOCC(=O)NCCOCCOCC(=O)NCCCC[C@H](NC(=O)CCCCCCCCCCCCCCCCCCC(=O)O)C(=O)O)CCNC(=O)CSC[C@@H](C(=O)NCC(=O)NCC(=O)N2CCC[C@H]2C(=O)N[C@@H](CO)C(=O)N[C@@H](CO)C(=O)NCC(=O)N[C@@H](C)C(=O)N2CCC[C@H]2C(=O)N2CCC[C@H]2C(=O)N2CCC[C@H]2C(=O)N[C@@H](CO)C(N)=O)NC(=O)[C@H](CC(C)C)NC(=O)[C@H](CC(C)C)NC(=O)[C@H](Cc2ccc(O)cc2)NC(=O)[C@H](CCC(=O)O)NC1=O [TG26] (H-Y[Aib]QGTFTSDYSI[αMeL][tBuAla]DKK(Ac)AQ[Aib]CFIEYLLCGGPSSGAPPPS-NH2; linker 21-28 via X1) | 360 pM | 59.4 pM | 149 pM |
